One series addresses T1, RFC in GW70 cells (Homo sapiens, UniProt P41440, E45K/H27R/S46I/V29L).
T1 construct: endogenous in cells; host or cells: CEM-GW70 (GW1843U89-resistant CCRF-CEM subline)
T1 sequence (P41440 1-591 H27R/V29L/E45K/S46I): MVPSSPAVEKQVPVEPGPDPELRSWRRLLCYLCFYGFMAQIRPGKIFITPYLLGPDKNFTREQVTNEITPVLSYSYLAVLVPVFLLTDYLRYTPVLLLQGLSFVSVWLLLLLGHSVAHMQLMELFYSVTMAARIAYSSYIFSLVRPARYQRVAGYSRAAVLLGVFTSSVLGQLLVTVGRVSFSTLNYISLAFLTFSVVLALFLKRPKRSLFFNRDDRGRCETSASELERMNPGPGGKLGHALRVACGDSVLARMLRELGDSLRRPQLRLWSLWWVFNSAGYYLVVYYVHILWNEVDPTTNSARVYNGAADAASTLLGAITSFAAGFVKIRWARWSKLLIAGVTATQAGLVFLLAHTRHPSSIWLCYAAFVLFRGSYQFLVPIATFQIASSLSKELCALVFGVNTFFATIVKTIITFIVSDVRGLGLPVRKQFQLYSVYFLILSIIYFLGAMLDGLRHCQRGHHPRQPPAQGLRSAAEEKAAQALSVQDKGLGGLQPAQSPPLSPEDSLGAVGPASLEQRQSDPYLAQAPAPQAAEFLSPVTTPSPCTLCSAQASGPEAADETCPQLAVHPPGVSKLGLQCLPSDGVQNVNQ
The series can be described thus: [3H]MTX and [3H]folic acid transport. The settings on record: GW70 vs parental CEM. It counts as cell-based. As to the method:
At selected transport time intervals, ranging from 0.5-30 minutes, uptake was terminated by the addition of 10 ml ice-cold HBSS, after which centrifugation and cell wash with another 10 ml ice-cold HBSS were performed. The final cell pellet was then counted for radioactivity.

Another series has as its system GW70/LF cells. The series can be described thus: Antifolate growth inhibition, 72 h drug exposure. It counts as cell-based. As to the method:
The GW70 subline was established by stepwise exposure of parental CEM cells to gradually increasing concentrations of the potent thymidylate synthase inhibitor, GW1843U89 in normal growth medium; this selection was initiated at 1.5 nM and terminated at 70 nM GW1843U89, the cells were therefore termed GW70. GW70/LF cells were established by gradual deprivation of folic acid from the growth medium; this was terminated at a concentration of 5 nM folic acid.

Series [1] has as its system parental human CEM leukemia cells (CEM/WT). Briefly: Antifolate growth inhibition, 72 h drug exposure. It counts as cell-based.
In series [2] the test system is GW70 cells (GW1843U89-resistant CEM subline). Briefly: Antifolate growth inhibition, 72 h drug exposure. Format: cell-based, human. The settings on record: for sensitivity relative to parental CEM cells: lipid-soluble antifolates.
Series [3] shares this test system. The series can be described thus: Folate growth requirement. The settings on record: Homo sapiens, read-out: EC50, concentration necessary to support 50% of maximal growth; Table 6; column GW (GW70). Format: cell-based, human. The text has this:
(§1) Table 6 below summarizes the antifolate growth inhibition and folate growth requirement in parental human CEM leukemia cells and their GW70 subline.

The test system of series [4] is mouse MTX^rA leukemia transfectant harboring Arg27/His56 RFC cDNA. The series can be described thus: Folate growth requirement in RFC transfectants. It counts as cell-based.
For series [5], the system named is mouse MTX^rA leukemia transfectant harboring Glu45Lys RFC cDNA. Briefly: Folate growth requirement in RFC transfectants. Format: cell-based.
The subject of series [6] is parental human CEM leukemia cells (CEM/WT). Briefly: Folate growth requirement. The settings on record: read-out: EC50, concentration necessary to support 50% of maximal growth, Table 6. Format: cell-based.
Text: as §1

Series [7] relates to mouse MTX^rA leukemia transfectant harboring native RFC (Arg27) cDNA. The series can be described thus: Folate growth requirement in RFC transfectants. Format: cell-based.
Series [8] concerns mouse MTX^rA leukemia transfectant harboring His27 RFC cDNA. The series can be described thus: Folate growth requirement in RFC transfectants. It counts as cell-based.
For series [9], the system named is mouse MTX^rA leukemia transfectant harboring His27/His56 RFC cDNA. The series can be described thus: Folate growth requirement in RFC transfectants. Format: cell-based.
The target of another series is TS (Mus musculus, UniProt P07607). The settings on record: Jackman, 1991; cited from earlier work.
Chain of TS (P07607 whole entry): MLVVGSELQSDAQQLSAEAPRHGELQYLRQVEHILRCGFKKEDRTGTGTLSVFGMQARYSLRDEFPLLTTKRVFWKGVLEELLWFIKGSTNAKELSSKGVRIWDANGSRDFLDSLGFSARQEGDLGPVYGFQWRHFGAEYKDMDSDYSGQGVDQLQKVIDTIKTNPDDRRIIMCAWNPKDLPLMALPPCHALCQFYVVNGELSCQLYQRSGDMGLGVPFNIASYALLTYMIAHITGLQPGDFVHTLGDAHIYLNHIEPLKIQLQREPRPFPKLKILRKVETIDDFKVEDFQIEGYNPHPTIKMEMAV
Substrate in series [10]: Nc1nc2ncc(CNc3ccc(C(=O)N[C@@H](CCC(=O)O)C(=O)O)cc3)nc2c(=O)[nH]1
Briefly: cells, lysate or membranes. Format: cell-based, human. Conditions: influx, initial (3 min) uptake rates, Lineweaver-Burk, pH 7.4, 37.0 °C.

Substrate in series [11]: CN(Cc1cnc2nc(N)nc(N)c2n1)c1ccc(C(=O)N[C@@H](CCC(=O)O)C(=O)O)cc1
The series can be described thus: cells, lysate or membranes. The settings on record: other: CEM/GW70; influx, initial (3 min) uptake rates, Lineweaver-Burk; pH 7.4; 37.0 °C.

Substrate in series [12]: CN(Cc1cnc2nc(N)nc(N)c2n1)c1ccc(C(=O)N[C@@H](CCC(=O)O)C(=O)O)cc1
The series can be described thus: cells, lysate or membranes. It counts as cell-based, human. The settings on record: other: CEM/GW70-LF; influx, initial (3 min) uptake rates, Lineweaver-Burk; pH 7.4; 37.0 °C.

The mark [13] stands for this setting: Table 10, GW70/LF, read-out: IC50.
The mark [14] stands for this setting: Table 10, CEM/WT, 72 h drug exposure, read-out: IC50.
[15] abbreviates: Table 10, GW70, 72 h drug exposure, read-out: IC50.
Where [16] appears, read: Homo sapiens, 72 h, Table 10, GW70/LF.
Setting [17] is: Homo sapiens, 72 h, Table 10, GW70/LF grown in the presence of 2.3 µM folic acid.
Setting [18] is: Mus musculus, read-out: EC50, concentration necessary to support 50% of maximal growth of control cells.
Setting [19] is: Homo sapiens, Table 10, CEM/WT, 72 h drug exposure, read-out: IC50.

Read-outs that look alike come from different tables or passages of the source. Marks after values point to notes of the source that are not given here. Where only a bound is given, the exact number is not on record here.

In the case of `CN1c2c(nc(N)[nH]c2=O)NCC1CNc1ccc(C(=O)N[C@@H](CCC(=O)O)C(=O)O)cc1` (some centres unmarked) [5-methyl-THF, 5-methyltetrahydrofolate], the “fold increased affinity of RFC” value on RFC in GW70 cells was found to be 3 fold.

Take `Cc1ccc2nc(N)[nH]c(=O)c2c1Sc1ccncc1` [AG337]: the IC50 in the series on GW70/LF cells (Table 10, GW70/LF grown in the presence of 2.3 µM folic acid, read-out: IC50) was determined as 2220 ± 264 nM; in the series with GW70/LF cells (setting [13]), 920 ± 430 nM; in series [1] (setting [14]), 1800 ± 340 nM; in series [2] (setting [15]) it was 974 ± 241 nM. Moreover, the “sensitivity relative to parental CEM cells” value in series [2] (GW70) is listed as “collaterally more sensitive than parental CEM cells”.

Regarding `Nc1nc2c(c(=O)[nH]1)CC(CCc1ccc(C(=O)N[C@@H](CCC(=O)O)C(=O)O)cc1)CN2` (some centres unmarked) [DDATHF, 5,10-dideazatetrahydrofolic acid], the IC50 in the series with GW70/LF cells (setting [16]) was 8.2 ± 1.7 nM; with GW70/LF cells (setting [17]), above 10000 nM; in series [1] (Homo sapiens, 72 h), 11 ± 4 nM; in series [2] (Homo sapiens, 72 h), 360 ± 106 nM.

On to `Nc1nc2c(c(=O)[nH]1)N(C=O)C(CNc1ccc(C(=O)N[C@@H](CCC(=O)O)C(=O)O)cc1)CN2` (some centres unmarked) [Leucovorin, 5-formyltetrahydrofolate], for which the EC50 stood at 2.4 ± 1.1 nM in series [3]; 0.7 ± 0.14 nM in series [4] (setting [18]); 0.65 ± 0.15 nM in series [5] (setting [18]); 0.51 ± 0.08 nM in [6]; 0.76 ± 0.03 nM in series [7] (Mus musculus, read-out: EC50, concentration necessary to support 50% of maximal growth of control cells, Arg27 (native RFC) transfectant); 0.78 ± 0.09 nM in [8] (setting [18]). Besides, in series [9] (setting [18]), the EC50 was 0.42 ± 0.1 nM. For the same molecule, the “MTX IC50/leucovorin EC50 ratio” value in series [4] (in parentheses) was “(1.32)”; in [5] (Glu45Lys transfectant, in parentheses), “(1.17)”; in series [7] (Arg27 transfectant, in parentheses), “(1)^c”; in [8] (in parentheses), “(0.97)”; in [9] (in parentheses) it was “(1.81)”.

Turning to `Nc1nc2[nH]cc(CCc3ccc(C(=O)N[C@@H](CCC(=O)O)C(=O)O)cc3)c2c(=O)[nH]1` [MTA], the half-maximal inhibitory concentration (IC50) came out at 4.6 ± 0.6 nM with GW70/LF cells (setting [16]); 221 ± 47 nM with GW70/LF cells (setting [17]); 23 ± 7 nM in series [1] (setting [19]); 351 ± 73 nM in series [2] (Homo sapiens, 72 h).

In the case of `Nc1nc(N)c2nc(CNc3ccc(C(=O)N[C@@H](CCCNC(=O)c4ccccc4C(=O)O)C(=O)O)cc3)cnc2n1` [PT523], the IC50 in the series on GW70/LF cells (setting [13]) came to 1.4 ± 0.1 nM; in series [1] (setting [14]), 1.1 ± 0.3 nM; in series [2] (setting [15]), 81 ± 16 nM.

Regarding `COc1cc(NCc2ccc3nc(N)nc(N)c3c2C)cc(OC)c1OC` [TMQ], the half-inhibitory concentration (IC50) is 1.1 ± 0.2 nM in the series with GW70/LF cells (setting [16]); 7.5 ± 2.1 nM in [1] (setting [19]); 7.2 ± 1.7 nM in [2] (Homo sapiens, 72 h). Moreover, the “sensitivity relative to parental CEM cells” value in series [2] (GW70, listed as trimetraxate) is reported as “hypersensitive”; in [2] (GW70, listed as trimetrexate), “collaterally more sensitive than parental CEM cells”.

`Cc1nc2ccc(CN(C)c3ccc(C(=O)N[C@@H](CCC(=O)O)C(=O)O)s3)cc2c(=O)[nH]1` [ZD1694]: the IC50 in the series with GW70/LF cells (Homo sapiens, 72 h, Table 10, GW70/LF grown in the presence of 2.3 µM folic acid, read-out: IC50) was found to be 389 ± 55 nM; with GW70/LF cells (Homo sapiens, 72 h, Table 10, GW70/LF, read-out: IC50), 3.2 ± 0.5 nM; in series [1] (setting [19]), 3.5 ± 0.6 nM; in series [2] (Homo sapiens, 72 h), 515 ± 224 nM. The inhibition constant (Ki) at TS is 60 nM.

Turning to `C#CCN(Cc1cc2c(=O)[nH]c(C)nc2cc1C)c1ccc(C(=O)N[C@@H](CCc2nnn[nH]2)C(=O)O)c(F)c1` [ZD9331], the half-inhibitory concentration (IC50) came out at 25 ± 6 nM with GW70/LF cells (setting [16]); 12 ± 4 nM in the series with GW70/LF cells (setting [17]); 16 ± 1 nM in series [1] (Homo sapiens, 72 h); 479 ± 67 nM in series [2] (Homo sapiens, 72 h).

B1: RFC in GW70 cells (Homo sapiens; E45K/H27R/S46I/V29L) (protein)
chain: MVPSSPAVEKQVPVEPGPDPELRSWRRLLCYLCFYGFMAQIRPGKIFITPYLLGPDKNFTREQVTNEITPVLSYSYLAVLVPVFLLTDYLRYTPVLLLQGLSFVSVWLLLLLGHSVAHMQLMELFYSVTMAARIAYSSYIFSLVRPARYQRVAGYSRAAVLLGVFTSSVLGQLLVTVGRVSFSTLNYISLAFLTFSVVLALFLKRPKRSLFFNRDDRGRCETSASELERMNPGPGGKLGHALRVACGDSVLARMLRELGDSLRRPQLRLWSLWWVFNSAGYYLVVYYVHILWNEVDPTTNSARVYNGAADAASTLLGAITSFAAGFVKIRWARWSKLLIAGVTATQAGLVFLLAHTRHPSSIWLCYAAFVLFRGSYQFLVPIATFQIASSLSKELCALVFGVNTFFATIVKTIITFIVSDVRGLGLPVRKQFQLYSVYFLILSIIYFLGAMLDGLRHCQRGHHPRQPPAQGLRSAAEEKAAQALSVQDKGLGGLQPAQSPPLSPEDSLGAVGPASLEQRQSDPYLAQAPAPQAAEFLSPVTTPSPCTLCSAQASGPEAADETCPQLAVHPPGVSKLGLQCLPSDGVQNVNQ
notes: endogenous in cells; host or cells: CEM-GW70 (GW1843U89-resistant CCRF-CEM subline)
With B1, the Km came to 16.5 ± 3.4 µM in series [10] (other: CEM/GW70) and 16 ± 3.9 µM in [11].

B2: RFC in GW70/LF cells (Homo sapiens; D88H/E45K/H27R/S46I/V29L) (protein)
chain: MVPSSPAVEKQVPVEPGPDPELRSWRRLLCYLCFYGFMAQIRPGKIFITPYLLGPDKNFTREQVTNEITPVLSYSYLAVLVPVFLLTHYLRYTPVLLLQGLSFVSVWLLLLLGHSVAHMQLMELFYSVTMAARIAYSSYIFSLVRPARYQRVAGYSRAAVLLGVFTSSVLGQLLVTVGRVSFSTLNYISLAFLTFSVVLALFLKRPKRSLFFNRDDRGRCETSASELERMNPGPGGKLGHALRVACGDSVLARMLRELGDSLRRPQLRLWSLWWVFNSAGYYLVVYYVHILWNEVDPTTNSARVYNGAADAASTLLGAITSFAAGFVKIRWARWSKLLIAGVTATQAGLVFLLAHTRHPSSIWLCYAAFVLFRGSYQFLVPIATFQIASSLSKELCALVFGVNTFFATIVKTIITFIVSDVRGLGLPVRKQFQLYSVYFLILSIIYFLGAMLDGLRHCQRGHHPRQPPAQGLRSAAEEKAAQALSVQDKGLGGLQPAQSPPLSPEDSLGAVGPASLEQRQSDPYLAQAPAPQAAEFLSPVTTPSPCTLCSAQASGPEAADETCPQLAVHPPGVSKLGLQCLPSDGVQNVNQ
notes: a prominent overproduction of the native ˜80 kDa and truncated 43 kDa RFC proteins; endogenous in cells; host or cells: GW70/LF (GW70 cells adapted to low folate; 5-fold RFC gene amplification)
Turning to B2, the Km came out at 17.1 ± 1.2 µM in series [12] and 15.5 ± 2.5 µM in series [10] (other: CEM/GW70-LF).
